Where a name gives a salt, the structure may show the parent alone.
test system: not given; assay: not given; conditions: not given

Structure (SMILES) | melting point
CSc1ncccc1C(=O)NC(c1ccc(F)cc1)C12CCCC(CN1)C2 (racemic) (as salt: HCl) [Compound 8, N-[(6-Azabicyclo[3.2.1]oct-5-yl)(4-fluorophenyl)methyl]-2-methylsulfanyl-nicotinamide] | 234 to 236 °C
CSc1ncccc1C(=O)NC(c1cccc(C)c1)C12CCCC(CN1)C2 (racemic) (as salt: HCl) [Compound 10, N-[(-6-Azabicyclo[3.2.1]oct-5-yl)-m-tolylmethyl]-2-methylsulfanylnicotinamide] | 205 to 207 °C
O=C(NC(c1cccc(C(F)(F)F)c1)C12CCCC(CN1)C2)c1nccc(C(F)(F)F)c1Cl (racemic) (as salt: HCl) [Compound 11, N-[(6-Azabicyclo[3.2.1]oct-5-yl)(3-trifluoromethylphenyl)methyl](3-chloro-4-trifluoromethyl)pyridine-2-carboxamide] | 250.4 to 251.4 °C
O=C(NC(c1ccccc1)C12CCCC(CN1)C2)c1cc(Cl)sc1Cl (racemic) [Compound 1, N-[(6-Azabicyclo[3.2.1]oct-5-yl)phenylmethyl](2,5-dichloro)thiophene-3-carboxamide] | 95 to 97 °C

Results, then the compound that gave them:

melting point | Structure (SMILES)
158 to 160 °C | O=C(NC(c1ccccc1)C12CCCC(CN1)C2)c1nccc(C(F)(F)F)c1Cl (racemic) (as salt: HCl) [Compound 3, N-[(6-Azabicyclo[3.2.1]oct-5-yl)phenylmethyl](3-chloro-4-trifluoromethyl)pyridine-2-carboxamide]
150 to 152 °C | Cn1cnc(C(=O)NC(c2ccccc2)C23CCCC(CN2)C3)c1 (racemic) [Compound 7, N-[(6-Azabicyclo[3.2.1]oct-5-yl)phenylmethyl](1-methyl)-1H-imidazole-4-carboxamide]

molecular target: T1, native human transporter GlyT1 (Homo sapiens, UniProt P48067); assay: Study of glycine transportation ([14C]glycine uptake) in SK-N-MC cells expressing the native human transporter GlyT1; assay type: cell-based; conditions: 10 μM [14C]glycine, 10 min at 37° C., concentration which reduces by 50% the specific uptake of glycine, read-out: CI50 (the source's name)
T1 construct: expressing the native human transporter GlyT1; endogenous in cells; host or cells: SK-N-MC (human neuroepithelial cells)
T1 sequence (P48067 1-706): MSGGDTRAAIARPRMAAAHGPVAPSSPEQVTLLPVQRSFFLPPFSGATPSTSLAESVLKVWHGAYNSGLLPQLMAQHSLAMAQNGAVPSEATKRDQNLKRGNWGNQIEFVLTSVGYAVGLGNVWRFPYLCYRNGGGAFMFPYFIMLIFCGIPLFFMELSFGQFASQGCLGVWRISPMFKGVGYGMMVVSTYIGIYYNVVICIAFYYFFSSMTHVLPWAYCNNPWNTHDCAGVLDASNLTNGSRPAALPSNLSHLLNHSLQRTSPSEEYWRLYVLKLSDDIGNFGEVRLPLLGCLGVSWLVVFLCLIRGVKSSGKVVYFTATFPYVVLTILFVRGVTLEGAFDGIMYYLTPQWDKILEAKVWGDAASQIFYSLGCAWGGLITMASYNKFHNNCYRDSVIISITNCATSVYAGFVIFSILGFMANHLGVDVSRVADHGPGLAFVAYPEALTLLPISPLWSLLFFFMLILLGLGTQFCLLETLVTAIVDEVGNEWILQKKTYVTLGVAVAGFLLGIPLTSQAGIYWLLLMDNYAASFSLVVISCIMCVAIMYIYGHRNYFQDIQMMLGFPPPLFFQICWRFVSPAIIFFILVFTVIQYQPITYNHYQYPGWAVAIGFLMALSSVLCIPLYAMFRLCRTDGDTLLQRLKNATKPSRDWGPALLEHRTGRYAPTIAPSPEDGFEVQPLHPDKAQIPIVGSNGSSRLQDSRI
Protocol: Study of Glycine Transportation in SK-N-MC Cells Expressing the Native Human Transporter GlyT1.
The uptake of [^14C]glycine is studied in SK-N-MC cells (human neuroepithelial cells) expressing the native human transporter GlyT1 by measuring the radioactivity incorporated in the presence or absence of the test compound. The cells are cultured as a monolayer for 48 hours in plates pretreated with 0.02% fibronectin. On the day of the experiment, the culture medium is removed and the cells are washed with Krebs-HEPES (4-(2-hydroxyethyl)piperazine-1-ethanesulphonic acid) buffer at pH 7.4. After preincubation for 10 minutes at 37° C. in the presence either of buffer (control batch) or of test compound at various concentrations or of 10 mM of glycine (determination of the non-specific uptake), 10 μM of [^14C]glycine (specific activity 112 mCi/mmol) are subsequently added. Incubation is continued for 10 min at 37° C. and the reaction is halted by washing twice with pH 7.4 Krebs-HEPES buffer. The radioactivity incorporated by the cells is then estimated after adding 100 μl of liquid scintillant and stirring for 1 h. Counting is carried out on a Microbeta Tri-Lux™ counter. The effectiveness of the compound is determined by the IC50, the concentration of the compound which reduces by 50% the specific uptake of glycine, defined by the difference in radioactivity incorporated by the control batch and the batch which received the 10 mM glycine.

Structure (SMILES) | IC50
CSc1ncccc1C(=O)NC(c1ccc(F)cc1)C12CCCC(CN1)C2 (racemic) [Compound 8, N-[(6-Azabicyclo[3.2.1]oct-5-yl)(4-fluorophenyl)methyl]-2-methylsulfanyl-nicotinamide] | 130 nM
O=C(NC(c1cccc(C(F)(F)F)c1)C12CCCC(CN1)C2)c1nccc(C(F)(F)F)c1Cl (racemic) [Compound 11, N-[(6-Azabicyclo[3.2.1]oct-5-yl)(3-trifluoromethylphenyl)methyl](3-chloro-4-trifluoromethyl)pyridine-2-carboxamide] | 170 nM
O=C(NC(c1ccccc1)C12CCCC(CN1)C2)c1cccc2c1ccn2Cc1ccccc1 (centres unmarked) [Compound 6, [(6-Azabicyclo[3.2.1]oct-5-yl)phenylmethyl](1-benzyl)-1H-indole-4-carboxamide] | 610 nM

More lines, now with the values ahead:

IC50 | Structure (SMILES)
140 nM | CSc1ncccc1C(=O)NC(c1ccccc1)C12CCCC(CN1)C2 (racemic) [Compound 2, N-[(6-azabicyclo[3.2.1]oct-5-yl)phenylmethyl](2-methylsulphanyl)nicotinamide]
220 nM | O=C(NC(c1ccccc1)C12CCCC(CN1)C2)c1nccc(C(F)(F)F)c1Cl (racemic) [Compound 3, N-[(6-Azabicyclo[3.2.1]oct-5-yl)phenylmethyl](3-chloro-4-trifluoromethyl)pyridine-2-carboxamide]
